Measurements from US12509454B2, “Thiadiazolyl derivatives” (IDEAYA Biosciences, Inc., priority 2019, dated 2025).

Biological target: Pol theta (1-899) (Homo sapiens (Human), UniProt O75417)
Experiment: Pol theta ATPase activity, NADH oxidation-coupled enzymatic assay
Assay type: biochemical
Details: Pol theta (1-899) 10 nM, ATP, dT50 ssDNA, absorbance 340 nm, 10-point dilution series; read-out: ATPase NADH coupling:Standard Screening:hPolQ IC50
Procedure, shortened: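 Pol theta (1-899), 10 nM, preincubated 15 min at RT with 10-point compound series in Tris pH 7.80/KCl/MgCl2 buffer, then given 100 μM ATP plus 300 nM dT50 ssDNA with PK/LDH-coupled NADH oxidation. A340 followed for 30 min; rate slopes fitted with a four-parameter model for IC50.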

Sequence of Pol theta (1-899) (O75417 1-899): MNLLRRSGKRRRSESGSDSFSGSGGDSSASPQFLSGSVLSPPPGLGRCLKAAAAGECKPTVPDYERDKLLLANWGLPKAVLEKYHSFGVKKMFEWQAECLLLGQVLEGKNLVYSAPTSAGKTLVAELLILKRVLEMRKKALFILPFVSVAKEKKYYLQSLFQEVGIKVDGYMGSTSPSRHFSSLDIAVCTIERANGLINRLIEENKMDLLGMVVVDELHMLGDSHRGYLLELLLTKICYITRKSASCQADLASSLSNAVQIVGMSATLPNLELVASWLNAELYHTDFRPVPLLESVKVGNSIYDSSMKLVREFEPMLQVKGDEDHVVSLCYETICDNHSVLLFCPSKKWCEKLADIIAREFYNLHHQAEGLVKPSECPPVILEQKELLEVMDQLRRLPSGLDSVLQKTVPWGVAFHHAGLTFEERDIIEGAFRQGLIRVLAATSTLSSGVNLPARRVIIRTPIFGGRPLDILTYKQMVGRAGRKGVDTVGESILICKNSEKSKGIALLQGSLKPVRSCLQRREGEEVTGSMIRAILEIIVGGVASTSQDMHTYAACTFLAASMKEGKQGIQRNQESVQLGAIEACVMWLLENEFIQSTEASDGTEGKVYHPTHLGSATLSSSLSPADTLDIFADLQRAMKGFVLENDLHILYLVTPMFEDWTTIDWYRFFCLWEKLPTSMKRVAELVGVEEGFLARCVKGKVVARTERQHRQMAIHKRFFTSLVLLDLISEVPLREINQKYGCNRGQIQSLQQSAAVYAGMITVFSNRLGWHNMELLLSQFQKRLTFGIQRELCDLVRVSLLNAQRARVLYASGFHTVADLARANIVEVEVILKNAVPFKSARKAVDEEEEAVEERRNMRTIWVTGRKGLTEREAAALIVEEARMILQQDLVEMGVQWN

IC50	SMILES
≤ 200 nM	O=C(Nc1nnc(OCc2ccc(Cl)cn2)s1)c1cncn1-c1ccccc1OC(F)F [Example 168, N-[5-[(5-chloropyridin-2-yl)methoxy]-1,3,4-thiadiazol-2-yl]-3-[2-(difluoromethoxy)phenyl]imidazole-4-carboxamide]
≤ 200 nM	Cc1nn(C)cc1-c1cnccc1C(=O)Nc1nnc(OCc2ccc(Cl)cc2)s1 [Example 169, N-[5-[(4-chlorophenyl)methoxy]-1,3,4-thiadiazol-2-yl]-3-(1,3-dimethylpyrazol-4-yl)pyridine-4-carboxamide]
≤ 200 nM	COc1ccccc1-c1cc(CO)ncc1C(=O)Nc1nnc(OCc2ccc(Cl)cn2)s1 [Example 170, N-[5-[(5-chloropyridin-2-yl)methoxy]-1,3,4-thiadiazol-2-yl]-6-(hydroxymethyl)-4-(2-methoxyphenyl)pyridine-3-carboxamide]
≤ 200 nM	O=C(Nc1nnc(OCc2ccc(Cl)cc2)s1)c1ccncc1-c1ccccc1CCO [Example 171, N-(5-((4-chlorobenzyl)oxy)-1,3,4-thiadiazol-2-yl)-3-(2-(2-hydroxyethyl)phenyl)isonicotinamide]
≤ 200 nM	N#Cc1ccc(OC2COC2)c(-c2cnccc2C(=O)Nc2nnc(OCc3ccc(Cl)cc3)s2)c1 [Example 172, N-(5-((4-chlorobenzyl)oxy)-1,3,4-thiadiazol-2-yl)-3-(5-cyano-2-(oxetan-3-yloxy)phenyl)isonicotinamide]
200 to 500 nM	O=C(Nc1nnc(OCc2ccc(Cl)cn2)s1)c1ccncc1N1CCOC2(CC2)C1 [Example 173, N-[5-[(5-chloropyridin-2-yl)methoxy]-1,3,4-thiadiazol-2-yl]-3-[4-oxa-7-azaspiro[2.5]octan-7-yl]pyridine-4-carboxamide]
≤ 200 nM	COc1ccccc1-c1cnccc1C(=O)Nc1nnc(OCc2ccccc2)s1 [Example 174, N-(5-(benzyloxy)-1,3,4-thiadiazol-2-yl)-3-(2-methoxyphenyl)isonicotinamide]
≤ 200 nM	N#Cc1cc(N2CCOC3(CC3)C2)c(C(=O)Nc2nnc(OCc3ccc(Cl)cc3)s2)cn1 [Example 177, N-[5-[(4-chlorophenyl)methoxy]-1,3,4-thiadiazol-2-yl]-6-cyano-4-[4-oxa-7-azaspiro[2.5]octan-7-yl]pyridine-3-carboxamide]
≤ 200 nM	COc1ccccc1-c1cnccc1C(=O)Nc1nnc(OCc2cccc3[nH]ncc23)s1 [Example 181, N-[5-(1H-indazol-4-ylmethoxy)-1,3,4-thiadiazol-2-yl]-3-(2-methoxyphenyl)pyridine-4-carboxamide]
≤ 200 nM	O=C(Nc1nnc(OCc2ccc(Cl)cn2)s1)c1ccncc1-c1c(F)cccc1OC(F)F [Example 182, N-(5-((5-chloropyridin-2-yl)methoxy)-1,3,4-thiadiazol-2-yl)-3-(2-(difluoromethoxy)-6-fluorophenyl)isonicotinamide]
≤ 200 nM	COc1cccc(F)c1-c1cc(C)ncc1C(=O)Nc1nnc(OCc2ccc(Cl)cc2)s1 [Example 183, N-(5-((4-chlorobenzyl)oxy)-1,3,4-thiadiazol-2-yl)-4-(2-fluoro-6-methoxyphenyl)-6-methylnicotinamide]
≤ 200 nM	COc1cccc(F)c1-c1cc(C)ncc1C(=O)Nc1nnc(OCc2ccc(Cl)cn2)s1 [Example 184, N-(5-((5-chloropyridin-2-yl)methoxy)-1,3,4-thiadiazol-2-yl)-4-(2-fluoro-6-methoxyphenyl)-6-methylnicotinamide]
≤ 200 nM	COc1cccc(F)c1-c1cc(C#N)ncc1C(=O)Nc1nnc(OCc2ccc(Cl)cc2)s1 [Example 185, N-(5-((4-chlorobenzyl)oxy)-1,3,4-thiadiazol-2-yl)-6-cyano-4-(2-fluoro-6-methoxyphenyl)nicotinamide]
≤ 200 nM	COc1cccc(F)c1-c1cc(C#N)ncc1C(=O)Nc1nnc(OCc2ccc(Cl)cn2)s1 [Example 186, N-(5-((5-chloropyridin-2-yl)methoxy)-1,3,4-thiadiazol-2-yl)-6-cyano-4-(2-fluoro-6-methoxyphenyl)nicotinamide]
≤ 200 nM	C[C@H]1COC[C@H](C)N1c1cnccc1C(=O)Nc1nnc(OCc2ccc(Cl)cn2)s1 [Example 187, N-(5-((5-chloropyridin-2-yl)methoxy)-1,3,4-thiadiazol-2-yl)-3-((3S,5S)-3,5-dimethylmorpholino)isonicotinamide]
≤ 200 nM	C[C@@H]1COC[C@@H](C)N1c1cnccc1C(=O)Nc1nnc(OCc2ccc(Cl)cn2)s1 [Example 188, N-(5-((5-chloropyridin-2-yl)methoxy)-1,3,4-thiadiazol-2-yl)-3-((3R,5R)-3,5-dimethylmorpholino)isonicotinamide]

IC50	SMILES
≤ 200 nM	Cc1cc(-c2c(F)cccc2OC(F)F)c(C(=O)Nc2nnc(OCc3ccc(Cl)cc3)s2)cn1 [Example 189, N-(5-((4-chlorobenzyl)oxy)-1,3,4-thiadiazol-2-yl)-4-(2-(difluoromethoxy)-6-fluorophenyl)-6-methylnicotinamide]
≤ 200 nM	Cc1cc(-c2c(F)cccc2OC(F)F)c(C(=O)Nc2nnc(OCc3ccc(Cl)cn3)s2)cn1 [Example 190, N-(5-((5-chloropyridin-2-yl)methoxy)-1,3,4-thiadiazol-2-yl)-4-(2-(difluoromethoxy)-6-fluorophenyl)-6-methylnicotinamide]
200 to 500 nM	COc1ccccc1-c1cnc(C)cc1C(=O)Nc1nnc(OCc2ccc(Cl)cn2)s1 [Example 191, N-[5-[(5-chloropyridin-2-yl)methoxy]-1,3,4-thiadiazol-2-yl]-5-(2-methoxyphenyl)-2-methylpyridine-4-carboxamide]
≤ 200 nM	N#Cc1cc(-c2c(F)cccc2OC(F)F)c(C(=O)Nc2nnc(OCc3ccc(Cl)cc3)s2)cn1 [Example 192, N-(5-((4-chlorobenzyl)oxy)-1,3,4-thiadiazol-2-yl)-6-cyano-4-(2-(difluoromethoxy)-6-fluorophenyl)nicotinamide]
≤ 200 nM	COc1cnccc1-c1cc(C)ncc1C(=O)Nc1nnc(OCc2ccc(Cl)cn2)s1 [Example 194, N-(5-((5-chloropyridin-2-yl)methoxy)-1,3,4-thiadiazol-2-yl)-3′-methoxy-6-methyl-[4,4′-bipyridine]-3-carboxamide]
≤ 200 nM	COc1c(CO)cccc1-c1cc(C)ncc1C(=O)Nc1nnc(OCc2ccc(Cl)cn2)s1 [Example 195, N-[5-[(5-chloropyridin-2-yl)methoxy]-1,3,4-thiadiazol-2-yl]-4-[3-(hydroxymethyl)-2-methoxyphenyl]-6-methylpyridine-3-carboxamide]
≤ 200 nM	Cc1cc(-c2c(C)n[nH]c2C)c(C(=O)Nc2nnc(OCc3ccc(Cl)cn3)s2)cn1 [Example 196, N-(5-((5-chloropyridin-2-yl)methoxy)-1,3,4-thiadiazol-2-yl)-4-(3,5-dimethyl-1H-pyrazol-4-yl)-6methylnicotinamide]
200 to 500 nM	COc1ccccc1-c1cc(C)ncc1C(=O)Nc1nnc(OCCc2ccc(Cl)cn2)s1 [Example 197, N-(5-(2-(5-chloropyridin-2-yl)ethoxy)-1,3,4-thiadiazol-2-yl)-4-(2-methoxyphenyl)-6-methylnicotinamide]
≤ 200 nM	Cc1cc(-c2cccc3c2OCCN3)c(C(=O)Nc2nnc(OCc3ccc(Cl)cn3)s2)cn1 [Example 198, N-(5-((5-chloropyridin-2-yl)methoxy)-1,3,4-thiadiazol-2-yl)-4-(3,4-dihydro-2H-benzo[b][1,4]oxazin-8-yl)-6-methylnicotinamide]
200 to 500 nM	COc1ccccc1-c1cc(C)ncc1C(=O)Nc1nnc(OCc2cc(F)ccn2)s1 [Example 199, N-(5-((4-fluoropyridin-2-yl)methoxy)-1,3,4-thiadiazol-2-yl)-4-(2-methoxyphenyl)-6-methylnicotinamide]
≤ 200 nM	COc1ccc(CO)cc1-c1cc(C)ncc1C(=O)Nc1nnc(OCc2ccc(Cl)cn2)s1 [Example 200, N-(5-((5-chloropyridin-2-yl)methoxy)-1,3,4-thiadiazol-2-yl)-4-(5-(hydroxymethyl)-2-methoxyphenyl)-6-methylnicotinamide]
500 to 1000 nM	COc1ccccc1-c1cc(C)ncc1C(=O)Nc1nnc(O[C@H](C)c2ccc(Cl)cc2)s1 [Example 201, N-[5-[(1R)-1-(4-chlorophenyl)ethoxy]-1,3,4-thiadiazol-2-yl]-4-(2-methoxyphenyl)-6-methylpyridine-3-carboxamide]
≤ 200 nM	COc1ccccc1-c1cc(C)ncc1C(=O)Nc1nnc(O[C@@H](C)c2ccc(Cl)cc2)s1 [Example 202, N-[5-[(1S)-1-(4-chlorophenyl)ethoxy]-1,3,4-thiadiazol-2-yl]-4-(2-methoxyphenyl)-6-methylpyridine-3-carboxamide]
≤ 200 nM	Cc1cc(-c2ccccc2CO)c(C(=O)Nc2nnc(OCc3ccc(Cl)cn3)s2)cn1 [Example 203, N-[5-[(5-chloropyridin-2-yl)methoxy]-1,3,4-thiadiazol-2-yl]-4-[2-(hydroxymethyl)phenyl]-6-methylpyridine-3-carboxamide]
1000 to 10000 nM	COc1ccccc1-c1cc(CN)ncc1C(=O)Nc1nnc(OCc2ccc(Cl)cn2)s1 [Example 204, 6-(aminomethyl)-N-[5-[(5-chloropyridin-2-yl)methoxy]-1,3,4-thiadiazol-2-yl]-4-(2-methoxyphenyl)pyridine-3-carboxamide]
≤ 200 nM	COc1ccccc1-c1cc(C)ncc1C(=O)Nc1nnc(OCc2ccc(C)cn2)s1 [Example 205, 4-(2-methoxyphenyl)-6-methyl-N-(5-((5-methylpyridin-2-yl)methoxy)-1,3,4-thiadiazol-2-yl)nicotinamide]

SMILES	IC50
O=C(Nc1nnc(OCc2ccc(Cl)cc2)s1)c1ccncc1N1C2CCC1COC2 [Example 176, N-[5-[(4-chlorophenyl)methoxy]-1,3,4-thiadiazol-2-yl]-3-[3-oxa-8-azabicyclo[3.2.1]octan-8-yl]pyridine-4-carboxamide]	≤ 200 nM
